Experimental findings from BindingDB's records for doi:10.1021/bi7000505 (Wyeth Research, 2007) are described below.

In this test the target is T1, Caspase-3 (Homo sapiens, UniProt P42574).
T1 sequence (P42574 whole entry): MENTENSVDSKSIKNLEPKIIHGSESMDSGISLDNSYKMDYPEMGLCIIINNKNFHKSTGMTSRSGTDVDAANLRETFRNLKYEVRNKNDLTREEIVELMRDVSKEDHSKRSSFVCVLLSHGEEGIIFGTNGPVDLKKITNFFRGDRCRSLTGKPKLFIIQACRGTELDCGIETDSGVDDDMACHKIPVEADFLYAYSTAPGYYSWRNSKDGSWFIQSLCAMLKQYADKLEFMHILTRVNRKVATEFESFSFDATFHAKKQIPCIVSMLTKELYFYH
By Ki is commonly meant the equilibrium dissociation constant of an inhibitor or competing ligand from its target. Higher therefore signals lower affinity. As for `O=C1Nc2ccc(S(=O)(=O)N3CCC[C@H]3COc3cccnc3)cc2C1=O` [5-{[(2S)-2-[(pyridin-3-yloxy)methyl]pyrrolidine-1-]sulfonyl}-2,3-dihydro-1H-indole-2,3-dione], the affinity corresponds to a Ki of 16.1 nM.

The compound `O=C(O)C[C@H](NC(=O)[C@@H](c1ccccc1)n1cccc(NC(=O)c2ccc3ccccc3c2)c1=O)C(=O)COc1ccccc1` [(3S)-3-[(1R)-1-[3-(naphthalene-2-amido)-2-oxo-1,2-dihydropyridin-1-yl]-1-phenylacetamido]-4-oxo-5-phenoxypentanoic acid] registered an inhibitory constant (Ki) of 165 nM.

The compound `CN1C(=O)C(=O)c2cc(S(=O)(=O)N3CCC[C@H]3COc3ccccc3)ccc21` [(S)-1-Methyl-5-{1-[2-(phenoxymethyl)pyrrolidinyl]sulfonyl}isatin] registered an inhibition constant Ki of 11 nM.

Compound `O=C1C(=O)N(Cc2ccccc2)c2ccc(S(=O)(=O)N3CCC[C@H]3COc3ccccc3)cc21` [JMC522188 Compound 2] displayed a Ki of 2.5 nM.
